The numbers were not newly measured in publication PMC12260505, “First-in-Human Phase I/IIa Study of the First-in-Class CDK2/4/6 Inhibitor PF-06873600 Alone or with Endocrine Therapy in Patients with Breast Cancer” (Clinical Cancer Research, 2025), which cites them from elsewhere.

The data set relates to HR+/HER2− mBC, post-ET patient population. The settings on record: palbociclib and fulvestrant, PALOMA3; cited from earlier work.

On to `CC(=O)c1c(C)c2cnc(Nc3ccc(N4CCNCC4)cn3)nc2n(C2CCCC2)c1=O` [palbociclib], for which the “Median PFS” value is 9.5 months and the ORR is reported as 24.6%.
